According to patent publication US8501755B2, “Tetrahydropyridothienopyrimidine compounds and methods of use thereof” (Bayer Intellectual Property GmbH, priority 2006, dated 2013):

Tests used:
Type in all cases: cell-based
[1] = tested on: A431 cells; experiment: In vitro tumor cell proliferation assay (Cell Titer-Glo) in A431 cells; settings: Homo sapiens, A-431, 72 h, A431 human epidermoid carcinoma overexpressing HER1; 72 hours exposure; read-out: IC50, activities in A431 cell lines
Text: (§1) The tumor cell proliferation assay used to test the compounds of the present invention involves a readout called Cell Titer-Glow® Luminescent Cell Viability Assay developed by Promega® (Cunningham, BA “A Growing Issue: Cell Proliferation Assays, Modern kits ease quantification of cell growth” The Scientist 2001, 15(13), 26, and Crouch, S P et al., “The use of ATP bioluminescence as a measure of cell proliferation and cytotoxicity” Journal of Immunological Methods 1993, 160, 81-88), that measures inhibition of cell proliferation. Generation of a luminescent signal corresponds to the amount of ATP present, which is directly proportional to the number of metabolically active (proliferating) cells. A431 cells [human epidermoid carcinoma, ATCC # HTB-20, overexpressing HER1 (EGFR, ErbB1)] and N87 [human gastric carcinoma, ATCC # CRL-1555, overexpressing HER2 (ErbB2) and HER1 (EGFR, ErbB1)] were plated at a density of 2.5×10^3 cells/well in 96 well black-clear bottom tissue culture plates in RPMI media with 10% Fetal Bovine Serum and incubated at 37° C. Twenty-four hours later, test compounds are added at a final concentration range from as high 100 μm to as low […] depend on the activities of the tested compounds in serial dilutions at a final DMSO concentration of 0.1%. Cells were incubated for 72 hours at 37° C. in complete growth media after addition of the test compound. After 72 hours of drug exposure, the plates were equilibrated to room temperature for approximately 30 min. Then, using a Promega Cell Titer Glo Luminescent® assay kit, lysis buffer containing 100 microliters of the enzyme luciferase and its substrate, luciferin mixture, was added to each well. The plates were mixed for 2 min on orbital shaker to ensure cell lysis and incubated for 10 min at room temperature to stabilize luminescence signal. The samples were read on VICTOR2 using Luminescence protocol, and analyzed with Analyze5 software to generate IC50 values.

[2] = tested on: N87; experiment: In vitro tumor cell proliferation assay (Cell Titer-Glo) in N87 cells; settings: N87 human gastric carcinoma overexpressing HER2 and HER1; 72 hours exposure; read-out: IC50, activities in N87 cell lines
Text: as §1

[3] = tested on: H1975 cells; experiment: In vitro tumor cell proliferation assay (Cell Titer-Glo) in H1975 cells; settings: NCI-H1975; H1975 human NSCLC expressing mutant HER1 (L858R,T790M); 72 hours exposure; read-out: IC50, activities in H 1975 cell lines
Text: The tumor cell proliferation assay used to test the compounds of the present invention involves a readout called Cell Titer-Glow® Luminescent Cell Viability Assay developed by Promega® (Cunningham, BA “A Growing Issue: Cell Proliferation Assays, Modern kits ease quantification of cell growth” The Scientist 2001, 15(13), 26, and Crouch, S P et al., “The use of ATP bioluminescence as a measure of cell proliferation and cytotoxicity” Journal of Immunological Methods 1993, 160, 81-88), that measures inhibition of cell proliferation. Generation of a luminescent signal corresponds to the amount of ATP present, which is directly proportional to the number of metabolically active (proliferating) cells.
H1975 cells [human non small cell lung carcinoma, ATCC # CRL-5908, expressing mutant HER1 [(EGFR, ErbB1)(L858R,T790M] were plated at a density of 3×10^3 cells/well in 96 well black-clear bottom tissue culture plates in RPMI media with 10% Fetal Bovine Serum and incubated at 37° C. Twenty-four hours later, test compounds are added at a final concentration range from as high 10 uM to as low 64 pM depending on the activities of the tested compounds in serial dilutions at a final DMSO concentration of 0.1%. Cells were incubated for 72 hours at 37° C. in complete growth media after addition of the test compound. After 72 hours of drug exposure, the plates were equilibrated to room temperature for approximately 30 min. Then, using a Promega Cell Titer Glo Luminescent® assay kit, lysis buffer containing 100 microliters of the enzyme luciferase and its substrate, luciferin mixture, was added to each well. The plates were mixed for 2 min on orbital shaker to ensure cell lysis and incubated for 10 min at room temperature to stabilize luminescence signal. The samples were read on VICTOR2 using Luminescence protocol, and analyzed with Analyze5 software to generate IC50 values.

IC50 [1] [µM] | IC50 [2] [µM] | IC50 [3] [µM] | Compound
< 0.2 | < 0.2 | 0.2 to 1 | O=C(/C=C/CN1CCOCC1)N1CCc2c(sc3ncnc(Nc4ccc(OCc5ccccn5)c(Cl)c4)c23)C1 [Example 1, 1-{4-[3-Chloro-4-(pyridin-2-ylmethoxy)-phenylamino]-5,8-dihydro-6H-9-thia-1,3,7 triaza-fluoren-7-yl}-4-morpholin-4-yl-but-2-en-1-one]
< 0.2 | < 0.2 | 1 to 10 | CCN(CC)C/C=C/C(=O)N1CCc2c(sc3ncnc(Nc4ccc(OCc5ccccn5)c(Cl)c4)c23)C1 [Example 2, N-[3-chloro-4-(pyridin-2-ylmethoxy)phenyl]-7-[(2E)-4-(diethylamino)but-2-enoyl]-5,6,7,8-tetrahydropyrido[4′,3′:4,5]thieno[2,3-d]pyrimidin-4-amine]
< 0.2 | < 0.2 | 0.2 to 1 | CN(C)C/C=C/C(=O)N1CCc2c(sc3ncnc(Nc4ccc(OCc5ccccn5)c(Cl)c4)c23)C1 [Example 3, N-[3-chloro-4-(pyridin-2-ylmethoxy)phenyl]-7-[(2E)-4-(dimethylamino)but-2-enoyl]-5,6,7,8-tetrahydropyrido[4′,3′:4,5]thieno[2,3-d]pyrimidin-4-amine]
< 0.2 | < 0.2 | 0.2 to 1 | O=C(/C=C/CN1CCCCC1)N1CCc2c(sc3ncnc(Nc4ccc(OCc5ccccn5)c(Cl)c4)c23)C1 [Example 4, N-[3-chloro-4-(pyridin-2-ylmethoxy)phenyl]-7-[(2E)-4-piperidin-1-ylbut-2-enoyl]-5,6,7,8-tetrahydropyrido[4′,3′:4,5]thieno[2,3-d]pyrimidin-4-amine]
< 0.2 | < 0.2 | 1 to 10 | CN1CCN(C/C=C/C(=O)N2CCc3c(sc4ncnc(Nc5ccc(OCc6ccccn6)c(Cl)c5)c34)C2)CC1 [Example 5, N-[3-chloro-4-(pyridin-2-ylmethoxy)phenyl]-7-[(2E)-4-(4-methylpiperazin-1-yl)but-2-enoyl]-5,6,7,8-tetrahydropyrido[4′,3′:4,5]thieno[2,3-d]pyrimidin-4-amine]
< 0.2 | < 0.2 | 1 to 10 | O=C(/C=C/CN1CCOCC1)N1CCc2c(sc3ncnc(Nc4ccc(F)c(Cl)c4)c23)C1 [Example 6, N-(3-chloro-4-fluorophenyl)-7-[(2E)-4-morpholin-4-ylbut-2-enoyl]-5,6,7,8-tetrahydropyrido[4′,3′:4,5]thieno[2,3-d]pyrimidin-4-amine]
< 0.2 | < 0.2 | 0.2 to 1 | CN(C)C/C=C/C(=O)N1CCc2c(sc3ncnc(Nc4ccc(F)c(Cl)c4)c23)C1 [Example 7, N-(3-chloro-4-fluorophenyl)-7-[(2E)-4-(dimethylamino)but-2-enoyl]-5,6,7,8-tetrahydropyrido[4′,3′:4,5]thieno[2,3-d]pyrimidin-4-amine]
0.2 to 1 | < 0.2 | 1 to 10 | CN1CCN(C/C=C/C(=O)N2CCc3c(sc4ncnc(Nc5ccc(F)c(Cl)c5)c34)C2)CC1 [Example 8, N-(3-chloro-4-fluorophenyl)-7-[(2E)-4-(4-methylpiperazin-1-yl)but-2-enoyl]-5,6,7,8-tetrahydropyrido[4′,3′:4,5]thieno[2,3-d]pyrimidin-4-amine]
< 0.2 | < 0.2 | 1 to 10 | CCN(CC)C/C=C/C(=O)N1CCc2c(sc3ncnc(Nc4ccc(F)c(Cl)c4)c23)C1 [Example 9, N-(3-chloro-4-fluorophenyl)-7-[(2E)-4-(diethylamino)but-2-enoyl]-5,6,7,8-tetrahydropyrido[4′,3′:4,5]thieno[2,3-d]pyrimidin-4-amine]
< 0.2 | < 0.2 | 1 to 10 | O=C(/C=C/CN1CCOCC1)N1CCc2c(sc3ncnc(Nc4ccc(OCc5cccc(F)c5)c(Cl)c4)c23)C1 [Example 10, N-{3-chloro-4-[(3-fluorobenzyl)oxy]phenyl}-7-[(2E)-4-morpholin-4-ylbut-2-enoyl]-5,6,7,8-tetrahydropyrido[4′,3′:4,5]thieno[2,3-d]pyrimidin-4-amine]
< 0.2 | < 0.2 | – | C#Cc1cccc(Nc2ncnc3sc4c(c23)CCN(C(=O)/C=C/CN2CCN(C)CC2)C4)c1 [Example 18, N-(3-ethynylphenyl)-7-[(2E)-4-(4-methylpiperazin-1-yl)but-2-enoyl]-5,6,7,8-tetrahydropyrido [4′,3′:4,5]thieno[2,3-d]pyrimidin-4-amine]
1 to 10 | – | 1 to 10 | O=C(/C=C/Cn1ccnc1)N1CCc2c(sc3ncnc(Nc4ccc(F)c(Cl)c4)c23)C1 [Example 34, N-(3-chloro-4-fluorophenyl)-7-[(2E)-4-(1H-imidazol-1-yl)but-2-enoyl]-5,6,7,8-tetrahydropyrido [4′,3′:4,5]thieno[2,3-d]pyrimidin-4-amine]
– | < 0.2 | < 0.2 | CC(C)N(C)C/C=C/C(=O)N1CCc2c(sc3ncnc(Nc4ccc(F)c(Cl)c4)c23)C1 [Example 36, N-(3-chloro-4-fluorophenyl)-7-{(2E)-4-[isopropyl(methyl)amino]but-2-enoyl}-5,6,7,8-tetrahydropyrido[4′,3′:4,5]thieno[2,3-d]pyrimidin-4-amine]
– | < 0.2 | 0.2 to 1 | CN(C/C=C/C(=O)N1CCc2c(sc3ncnc(Nc4ccc(F)c(Cl)c4)c23)C1)C(C)(C)C [Example 55, 7-{(2E)-4-[tert-butyl(methyl)amino]but-2-enoyl}-N-(3-chloro-4-fluorophenyl)-5,6,7,8-tetrahydropyrido [4′,3′:4,5]thieno[2,3-d]pyrimidin-4-amine]
0.2 to 1 | < 0.2 | – | O=C(/C=C/CN1CCOCC1)N1CCc2c(sc3ncnc(Nc4ccc5c(ccn5Cc5ccccn5)c4)c23)C1 [Example 120, 7-[(2E)-4-morpholin-4-ylbut-2-enoyl]-N-[1-(pyridin-2-ylmethyl)-1H-indol-5-yl]-5,6,7,8-tetrahydropyrido [4′,3′:4,5]thieno[2,3-d]pyrimidin-4-amine]
– | < 0.2 | – | CN(C/C=C/C(=O)N1CCc2c(sc3ncnc(Nc4ccc5c(ccn5Cc5ccccc5)c4)c23)C1)C(C)(C)C [Example 131, N-(1-benzyl-1H-indol-5-yl)-7-{(2E)-4-[tert-butyl(methyl)amino]but-2-enoyl}-5,6,7,8-tetrahydropyrido [4′,3′:4,5]thieno[2,3-d]pyrimidin-4-amine]
1 to 10 | < 0.2 | – | O=C(C#CCN1CCOCC1)N1CCc2c(sc3ncnc(Nc4ccc(F)c(Cl)c4)c23)C1 [Example 137, N-(3-chloro-4-fluorophenyl)-7-(4-morpholin-4-ylbut-2-ynoyl)-5,6,7,8-tetrahydropyrido [4′,3′:4,5]thieno[2,3-d]pyrimidin-4-amine]
0.2 to 1 | < 0.2 | – | C#Cc1cccc(Nc2ncnc3sc4c(c23)CCN(C(=O)C#CCN2CCOCC2)C4)c1 [Example 138, N-(3-ethynylphenyl)-7-(4-morpholin-4-ylbut-2-ynoyl)-5,6,7,8-tetrahydropyrido [4′,3′:4,5]thieno[2,3-d]pyrimidin-4-amine]
– | < 0.2 | – | CC1CCCCN1C/C=C/C(=O)N1CCc2c(sc3ncnc(Nc4ccc(Cl)c(Cl)c4)c23)C1 (stereo not shown) [Example 210, N-(3,4-dichlorophenyl)-7-[(2E)-4-(2-methylpiperidin-1-yl)but-2-enoyl]-5,6,7,8-tetrahydropyrido [4′,3′:4,5]thieno[2,3-d]pyrimidin-4-amine]
